Test results as given in PMC12638379, “An innovative approach to development of new pyrazolylquinolin-2-one hybrids as dual EGFR and BRAF^V600E inhibitors” (Molecular Diversity, 2025).
Where two headings read alike, the source gives them in different places.

Key:
[1] = test system: leukemia (MOLT-4) cell line; experiment: MTT antiproliferative assay, MOLT-4; assay type: cell-based, human
Method: (§1) After 24 h of culture incubation and supernatants discarded.

[2] = test system: NCI 60 cancer cell lines; experiment: NCI anticancer screening over a panel of 60 cancer cells, single concentration 10 µM; assay type: cell-based, human; conditions: Homo sapiens, read-out: % Growth Inhibition (GI %)
Outline: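 Primary single-dose screen at 10 µM over the NCI panel of 60 human tumour cell lines (leukemia, CNS, lung, colon, kidney, ovary, breast, prostate). The standard NCI Developmental Therapeutics Program protocol was used.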

[3] = test system: lung cancer (HOP-92) cell line; experiment: MTT antiproliferative assay, HOP-92; assay type: cell-based, human
Method: […]. […] See Appendix B.
as §1

[4] = biological target: BRAF^V600E (Homo sapiens, UniProt P15056, V600E); experiment: BRAF^V600E inhibitory assay (B-Raf (V600E) Kinase Assay); assay type: biochemical; conditions: read-out: BRAF^V600E inhibition IC50 ± SEM
Sequence of BRAF^V600E (P15056 whole entry V600E): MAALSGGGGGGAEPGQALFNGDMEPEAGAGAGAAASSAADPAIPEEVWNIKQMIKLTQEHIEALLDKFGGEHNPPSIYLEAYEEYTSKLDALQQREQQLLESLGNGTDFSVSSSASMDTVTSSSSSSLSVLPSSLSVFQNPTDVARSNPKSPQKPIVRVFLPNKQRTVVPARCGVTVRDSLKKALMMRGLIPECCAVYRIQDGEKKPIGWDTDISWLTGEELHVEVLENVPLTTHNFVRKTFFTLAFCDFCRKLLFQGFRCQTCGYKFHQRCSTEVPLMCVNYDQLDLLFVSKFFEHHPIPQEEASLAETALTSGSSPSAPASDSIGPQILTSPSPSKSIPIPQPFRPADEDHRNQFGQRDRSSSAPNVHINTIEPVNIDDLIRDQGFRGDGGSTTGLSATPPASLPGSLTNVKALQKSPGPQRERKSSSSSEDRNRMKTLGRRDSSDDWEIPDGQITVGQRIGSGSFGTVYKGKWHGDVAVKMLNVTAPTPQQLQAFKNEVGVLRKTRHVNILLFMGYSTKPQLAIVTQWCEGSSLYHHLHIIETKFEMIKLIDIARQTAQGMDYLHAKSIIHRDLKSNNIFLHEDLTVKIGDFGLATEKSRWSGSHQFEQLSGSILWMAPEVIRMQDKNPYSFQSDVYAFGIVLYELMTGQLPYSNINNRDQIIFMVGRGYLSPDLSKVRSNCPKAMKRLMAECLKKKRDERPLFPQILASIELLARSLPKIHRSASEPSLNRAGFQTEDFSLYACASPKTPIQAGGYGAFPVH

[5] = MTT cytotoxicity on normal cell line WI-38; conditions: human, WI-38 normal cells, % viability
[6] = test system: normal cell line WI-38; experiment: MTT cytotoxicity on normal cell line WI-38
[7] = test system: breast cancer (T47D) cell line; experiment: MTT antiproliferative assay, T-47D
Outline: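 HOP-92, MOLT-4 and T-47D cells in DMEM/10% FBS/insulin exposed 24 h to serial 10-fold dilutions […]; MTT added 2–4 h, absorbance at 570 nm with 690 nm background subtraction. Percent viable cells gives IC50; GI50 is the average IC50 across the three lines.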

C/C(=N\Nc1ccc(C(=O)O)cc1)c1cnn(-c2cc(=O)[nH]c3ccccc23)c1C [Compound 4f, (E)-4-(2-(1-(5-methyl-1-(2-oxo-1,2-dihydroquinolin-4-yl)-1H-pyrazol-4-yl)ethylidene) hydrazineyl)benzoic acid]
viability at 0.4 µM ([1]; Homo sapiens, MOLT-4, MOLT-4, MTT, 0.4uM): 70.3% | viability at 1.6 µM ([1]; Homo sapiens, MOLT-4, MOLT-4, MTT, 1.6uM): 59.6% | viability at 6.3 µM ([1]; Homo sapiens, MOLT-4, MOLT-4, MTT, 6.3uM): 58.5% | viability at 25 µM ([1]; Homo sapiens, MOLT-4, MOLT-4, MTT, 25uM): 48.1% | viability at 100 µM ([1]; Homo sapiens, MOLT-4, MOLT-4, MTT, 100uM): 39.1% | IC50 ([1]; Homo sapiens, MOLT-4, MTT, read-out: Antiproliferative activity IC50 ± SEM, MOLT-4): 16.3 ± 0.65 µM | % viability ([1]; MOLT-4, MTT, 0.4uM, listed as ws6, 0.4 µM): 70.3059% | % viability ([1]; MOLT-4, MTT, 1.6uM, listed as ws6, 1.6 µM): 59.5561% | % viability ([1]; MOLT-4, MTT, 6.3uM, listed as ws6, 6.3 µM): 58.5483% | % viability ([1]; MOLT-4, MTT, 100uM, listed as ws6, 100 µM): 39.1122% | inhibition at 10 µM ([2]; 786-0, Renal cancer 786-0, 10 μM): < 5% | inhibition at 10 µM ([2]; A498, Renal cancer A498, 10 μM): < 5% | inhibition at 10 µM ([2]; A549, Non-small cell lung cancer A549/ATCC, 10 μM): < 5% | inhibition at 10 µM ([2]; ACHN, Renal cancer ACHN, 10 μM): 5.83% | inhibition at 10 µM ([2]; BT-549, Breast cancer BT-549, 10 μM): < 5% | inhibition at 10 µM ([2]; CAKI-1, Renal cancer CAKI-1, 10 μM): 16.1% | inhibition at 10 µM ([2]; CCRF-CEM, Leukemia CCRF-CEM, 10 μM): < 5% | inhibition at 10 µM ([2]; COLO 205, Colon cancer COLO 205, 10 μM): < 5% | inhibition at 10 µM ([2]; DU-145, Prostate cancer DU-145, 10 μM): < 5% | inhibition at 10 µM ([2]; EKVX, Non-small cell lung cancer EKVX, 10 μM): < 5% | inhibition at 10 µM ([2]; HCC 2998, Colon cancer HCC-2998, 10 μM): < 5% | inhibition at 10 µM ([2]; HCT-15, Colon cancer HCT-15, 10 μM): < 5% | inhibition at 10 µM ([2]; HCT-116, Colon cancer HCT-116, 10 μM): < 5% | inhibition at 10 µM ([2]; HL-60, Leukemia HL-60(TB), 10 μM): < 5% | inhibition at 10 µM ([2]; HOP-62, Non-small cell lung cancer HOP-62, 10 μM): 8.55% | inhibition at 10 µM ([2]; HOP-92, Non-small cell lung cancer HOP-92, 10 μM): 79.8% | inhibition at 10 µM ([2]; HT-29, Colon cancer HT29, 10 μM): < 5% | inhibition at 10 µM ([2]; Hs-578T, Breast cancer HS 578T, 10 μM): 12.3% | inhibition at 10 µM ([2]; IGROV-1, Ovarian cancer IGROV1, 10 μM): < 5% | inhibition at 10 µM ([2]; K562, Leukemia K-562, 10 μM): < 5% | inhibition at 10 µM ([2]; KM12, Colon cancer KM12, 10 μM): < 5% | inhibition at 10 µM ([2]; LOX IMVI, Melanoma LOX IMVI, 10 μM): 10.8% | inhibition at 10 µM ([2]; Leukemia SR, 10 μM): 12.2% | inhibition at 10 µM ([2]; MCF7, Breast cancer MCF7, 10 μM): 5.99% | inhibition at 10 µM ([2]; MDA-MB-231, Breast cancer MDA-MB-231/ATCC, 10 μM): 12.5% | inhibition at 10 µM ([2]; MDA-MB-435, Melanoma MDA-MB-435, 10 μM): < 5% | inhibition at 10 µM ([2]; MDA-MB-468, Breast cancer MDA-MB-468, 10 μM): < 5% | inhibition at 10 µM ([2]; MOLT-4, Leukemia MOLT-4, 10 μM): < 5% | inhibition at 10 µM ([2]; Melanoma M14, 10 μM): 8.95% | inhibition at 10 µM ([2]; Melanoma MALM-3M, 10 μM): 9.22% | inhibition at 10 µM ([2]; NCI-H23, Non-small cell lung cancer NCI-H23, 10 μM): 7.19% | inhibition at 10 µM ([2]; NCI-H226, Non-small cell lung cancer NCI-H226, 10 μM): 10.9% | inhibition at 10 µM ([2]; NCI-H322M, Non-small cell lung cancer NCI-H322M, 10 μM): < 5% | inhibition at 10 µM ([2]; NCI-H460, Non-small cell lung cancer NCI-H460, 10 μM): < 5% | inhibition at 10 µM ([2]; NCI-H522, Non-small cell lung cancer NCI-H522, 10 μM): 13.9% | inhibition at 10 µM ([2]; NCI/ADR-RES, Ovarian cancer NCI/ADR-RES, 10 μM): < 5% | inhibition at 10 µM ([2]; OVCAR-3, Ovarian cancer OVCAR-3, 10 μM): < 5% | inhibition at 10 µM ([2]; OVCAR-4, Ovarian cancer OVCAR-4, 10 μM): 7.33% | inhibition at 10 µM ([2]; OVCAR-5, Ovarian cancer OVCAR-5, 10 μM): < 5% | inhibition at 10 µM ([2]; OVCAR-8, Ovarian cancer OVCAR-8, 10 μM): < 5% | inhibition at 10 µM ([2]; Prostate cancer PC-3, 10 μM): 12.4% | inhibition at 10 µM ([2]; RPMI-8226, Leukemia RPMI-8226, 10 μM): < 5% | inhibition at 10 µM ([2]; RXF 393, Renal cancer RXF 393, 10 μM): 11.1% | inhibition at 10 µM ([2]; SF-268, CNS Cancer SF-268, 10 μM): < 5% | inhibition at 10 µM ([2]; SF-295, CNS Cancer SF-295, 10 μM): < 5% | inhibition at 10 µM ([2]; SF-539, CNS Cancer SF-539, 10 μM): < 5% | inhibition at 10 µM ([2]; SK-MEL-2, Melanoma SK-MEL-2, 10 μM): < 5% | inhibition at 10 µM ([2]; SK-MEL-5, Melanoma SK-MEL-5, 10 μM): < 5% | inhibition at 10 µM ([2]; SK-MEL-28, Melanoma SK-MEL-28, 10 μM): < 5% | inhibition at 10 µM ([2]; SK-OV-3, Ovarian cancer SK-OV-3, 10 μM): < 5% | inhibition at 10 µM ([2]; SN12C, Renal cancer SN12C, 10 μM): < 5% | inhibition at 10 µM ([2]; SNB-19, CNS Cancer SNB-19, 10 μM): < 5% | inhibition at 10 µM ([2]; SNB-75, CNS Cancer SNB-75, 10 μM): 12.9% | inhibition at 10 µM ([2]; SW-620, Colon cancer SW-620, 10 μM): < 5% | inhibition at 10 µM ([2]; T47D, Breast cancer T-47D, 10 μM): < 5% | inhibition at 10 µM ([2]; TK-10, Renal cancer TK-10, 10 μM): < 5% | inhibition at 10 µM ([2]; U-251, CNS Cancer U251, 10 μM): < 5% | inhibition at 10 µM ([2]; UACC-62, Melanoma UACC-62, 10 μM): 6.43% | inhibition at 10 µM ([2]; UACC-257, Melanoma UACC-257, 10 μM): < 5% | inhibition at 10 µM ([2]; UO-31, Renal cancer UO-31, 10 μM): 45.2% | % viability ([3]; HOP-92, MTT, 0.4uM, listed as ws6, 0.4 µM): 83.3554% | % viability ([3]; HOP-92, MTT, 1.6uM, listed as ws6, 1.6 µM): 74.4032% | % viability ([3]; HOP-92, MTT, 6.3uM, listed as ws6, 6.3 µM): 64.3236% | % viability ([3]; HOP-92, MTT, 100uM, listed as ws6, 100 µM): 35.3448% | viability at 0.4 µM ([3]; Homo sapiens, HOP-92, HOP-92, MTT, 0.4uM, read-out: % viability): 83.4% | viability at 1.6 µM ([3]; Homo sapiens, HOP-92, HOP-92, MTT, 1.6uM, read-out: % viability): 74.4% | viability at 6.3 µM ([3]; Homo sapiens, HOP-92, HOP-92, MTT, 6.3uM, read-out: % viability): 64.3% | viability at 25 µM ([3]; Homo sapiens, HOP-92, HOP-92, MTT, 25uM, read-out: % viability): 51.8% | viability at 100 µM ([3]; Homo sapiens, HOP-92, HOP-92, MTT, 100uM, read-out: % viability): 35.3% | IC50 ([3]; Homo sapiens, HOP-92, MTT, read-out: Antiproliferative activity IC50 ± SEM, HOP-92): 24.9 ± 1.9 µM | IC50 [4]: 0.41 ± 0.016 µM | viability at 24 h, 0.4 µM ([5]; WI38, 0.4uM (log conc. -0.41)): 80% | viability at 24 h, 1.6 µM ([5]; WI38, 1.6uM (log conc. 0.19)): 74.5% | viability at 24 h, 6.3 µM ([5]; WI38, 6.3uM (log conc. 0.8)): 65.4% | viability at 24 h, 25 µM ([5]; WI38, 25uM (log conc. 1.4)): 54.9% | viability at 24 h, 100 µM ([5]; WI38, 100uM (log conc. 2)): 41.6% | IC50 ([6]; Homo sapiens, read-out: Antiproliferative activity IC50 ± SEM): 42.1 ± 1.68 µM | % viability ([6]; WI38, 0.4uM (log conc. -0.41), listed as ws6, 0.4 µM): 79.9762% | % viability ([6]; WI38, 1.6uM (log conc. 0.19), listed as ws6, 1.6 µM): 74.5098% | % viability ([6]; WI38, 6.3uM (log conc. 0.8), listed as ws6, 6.3 µM): 65.3595% | % viability ([6]; WI38, 100uM (log conc. 2), listed as ws6, 100 µM): 41.5924% | viability at 0.4 µM ([7]; Homo sapiens, T47D, T-47D, MTT, 0.4uM): 78.6% | viability at 1.6 µM ([7]; Homo sapiens, T47D, T-47D, MTT, 1.6uM): 72.1% | viability at 6.3 µM ([7]; Homo sapiens, T47D, T-47D, MTT, 6.3uM): 61.4% | viability at 25 µM ([7]; Homo sapiens, T47D, T-47D, MTT, 25uM): 50.1% | viability at 100 µM ([7]; Homo sapiens, T47D, T-47D, MTT, 100uM): 41.1% | IC50 ([7]; Homo sapiens, T47D, read-out: Antiproliferative activity IC50 ± SEM, T-47D, MTT): 28.6 ± 0.99 µM | % viability ([7]; T-47D, MTT, 1.6uM, listed as ws6, 1.6 µM): 72.1271% | % viability ([7]; T-47D, MTT, 6.3uM, listed as ws6, 6.3 µM): 61.3692% | % viability ([7]; T-47D, MTT, 100uM, listed as ws6, 100 µM): 41.0758%
